The target of experiment [1] is Tyrosine-protein kinase JAK2 (Homo sapiens, UniProt O60674).
Experiment [2] addresses Cyclin-dependent kinase 10 (Homo sapiens, UniProt Q15131).
The target of experiment [3] is 5'-AMP-activated protein kinase subunit gamma-2 (Homo sapiens, UniProt Q9UGJ0).
Experiment [4] deals with T1, Uncharacterized protein FLJ45252 (Homo sapiens, UniProt Q6ZSR9).
T1 sequence (Q6ZSR9 whole entry): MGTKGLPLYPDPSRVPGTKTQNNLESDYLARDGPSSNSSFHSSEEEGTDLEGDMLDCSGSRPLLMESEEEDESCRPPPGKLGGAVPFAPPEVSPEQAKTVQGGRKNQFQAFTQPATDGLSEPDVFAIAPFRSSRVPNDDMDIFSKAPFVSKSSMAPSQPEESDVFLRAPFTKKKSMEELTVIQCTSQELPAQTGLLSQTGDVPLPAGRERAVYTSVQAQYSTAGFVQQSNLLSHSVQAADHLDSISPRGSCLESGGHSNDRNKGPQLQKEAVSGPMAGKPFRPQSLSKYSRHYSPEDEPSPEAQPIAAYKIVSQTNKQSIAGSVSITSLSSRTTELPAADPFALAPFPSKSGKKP

Experiment [5] has as its target 5'-AMP-activated protein kinase subunit gamma-1 (Homo sapiens, UniProt P54619).
Experiment [6] concerns the target T2, General transcription and DNA repair factor IIH helicase subunit XPD (Homo sapiens, UniProt P18074).
T2 sequence (P18074 whole entry): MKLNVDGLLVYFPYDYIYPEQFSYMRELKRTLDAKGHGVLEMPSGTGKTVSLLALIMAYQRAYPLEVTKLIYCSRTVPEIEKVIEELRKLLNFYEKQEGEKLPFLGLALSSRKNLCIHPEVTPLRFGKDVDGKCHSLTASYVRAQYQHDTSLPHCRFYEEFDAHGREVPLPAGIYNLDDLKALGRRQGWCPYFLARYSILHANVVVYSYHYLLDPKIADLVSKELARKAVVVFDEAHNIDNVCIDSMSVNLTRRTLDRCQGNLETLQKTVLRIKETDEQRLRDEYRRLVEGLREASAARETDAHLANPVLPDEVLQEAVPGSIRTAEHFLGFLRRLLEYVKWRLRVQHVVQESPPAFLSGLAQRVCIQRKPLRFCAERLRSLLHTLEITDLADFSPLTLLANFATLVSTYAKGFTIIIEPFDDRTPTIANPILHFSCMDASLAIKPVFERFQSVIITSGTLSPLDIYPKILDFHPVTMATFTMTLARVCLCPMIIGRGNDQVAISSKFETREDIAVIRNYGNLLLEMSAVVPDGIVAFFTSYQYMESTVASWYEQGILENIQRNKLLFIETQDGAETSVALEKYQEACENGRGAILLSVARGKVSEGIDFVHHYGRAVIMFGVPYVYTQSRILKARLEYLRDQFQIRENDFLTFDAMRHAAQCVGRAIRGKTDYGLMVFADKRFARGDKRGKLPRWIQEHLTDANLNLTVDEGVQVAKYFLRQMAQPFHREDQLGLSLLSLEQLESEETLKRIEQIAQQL

Experiment [7] concerns the target Eukaryotic peptide chain release factor GTP-binding subunit ERF3B (Homo sapiens, UniProt Q8IYD1).
Experiment [8] has as its target Cyclin-dependent kinase 9 (Homo sapiens, UniProt P50750).
Experiment [9] deals with Cyclin-dependent kinase 18 (Homo sapiens, UniProt Q07002).
Chain of Cyclin-dependent kinase 18 (Q07002 whole entry): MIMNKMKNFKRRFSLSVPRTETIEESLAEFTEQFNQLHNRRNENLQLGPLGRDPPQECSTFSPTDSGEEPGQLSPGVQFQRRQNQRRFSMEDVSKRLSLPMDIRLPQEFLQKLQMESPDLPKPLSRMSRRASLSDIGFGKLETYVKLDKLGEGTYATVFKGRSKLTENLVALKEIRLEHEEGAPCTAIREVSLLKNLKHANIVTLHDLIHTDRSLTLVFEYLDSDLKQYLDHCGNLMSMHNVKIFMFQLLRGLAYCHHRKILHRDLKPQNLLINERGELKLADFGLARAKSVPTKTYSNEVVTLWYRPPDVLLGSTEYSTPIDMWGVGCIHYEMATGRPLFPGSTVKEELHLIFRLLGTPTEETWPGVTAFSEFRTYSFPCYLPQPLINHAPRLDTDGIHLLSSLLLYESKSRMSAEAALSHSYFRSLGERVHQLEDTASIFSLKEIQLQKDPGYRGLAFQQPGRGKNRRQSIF
The target in experiment [10] is Activin receptor type-1-like (Homo sapiens, UniProt P37023).
For experiment [11], the target named is Serine/threonine-protein kinase 38 (Homo sapiens, UniProt Q15208).
Chain of Serine/threonine-protein kinase 38 (Q15208 whole entry): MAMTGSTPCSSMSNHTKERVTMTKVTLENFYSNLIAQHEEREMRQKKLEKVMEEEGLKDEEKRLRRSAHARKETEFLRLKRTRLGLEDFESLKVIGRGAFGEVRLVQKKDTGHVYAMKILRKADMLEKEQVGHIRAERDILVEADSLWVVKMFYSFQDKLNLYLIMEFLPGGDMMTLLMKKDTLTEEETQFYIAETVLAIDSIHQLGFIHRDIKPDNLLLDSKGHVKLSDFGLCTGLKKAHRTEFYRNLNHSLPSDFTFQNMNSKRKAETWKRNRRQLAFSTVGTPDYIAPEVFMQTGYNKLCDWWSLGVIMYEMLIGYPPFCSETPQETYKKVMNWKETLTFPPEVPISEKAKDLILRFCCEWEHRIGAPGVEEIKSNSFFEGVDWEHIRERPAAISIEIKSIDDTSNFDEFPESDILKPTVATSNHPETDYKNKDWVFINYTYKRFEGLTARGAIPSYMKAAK
In experiment [12] the target is ALK tyrosine kinase receptor (Homo sapiens, UniProt Q9UM73). In kind it is subcellular, K-562, COLO 205, SK-N-BE(2) and MV-4-11, Cell lysate. The note with it: read-out: Kd apparent.
In experiment [13] the target is Mast/stem cell growth factor receptor Kit (Homo sapiens, UniProt P10721).
Chain of Mast/stem cell growth factor receptor Kit (P10721 whole entry): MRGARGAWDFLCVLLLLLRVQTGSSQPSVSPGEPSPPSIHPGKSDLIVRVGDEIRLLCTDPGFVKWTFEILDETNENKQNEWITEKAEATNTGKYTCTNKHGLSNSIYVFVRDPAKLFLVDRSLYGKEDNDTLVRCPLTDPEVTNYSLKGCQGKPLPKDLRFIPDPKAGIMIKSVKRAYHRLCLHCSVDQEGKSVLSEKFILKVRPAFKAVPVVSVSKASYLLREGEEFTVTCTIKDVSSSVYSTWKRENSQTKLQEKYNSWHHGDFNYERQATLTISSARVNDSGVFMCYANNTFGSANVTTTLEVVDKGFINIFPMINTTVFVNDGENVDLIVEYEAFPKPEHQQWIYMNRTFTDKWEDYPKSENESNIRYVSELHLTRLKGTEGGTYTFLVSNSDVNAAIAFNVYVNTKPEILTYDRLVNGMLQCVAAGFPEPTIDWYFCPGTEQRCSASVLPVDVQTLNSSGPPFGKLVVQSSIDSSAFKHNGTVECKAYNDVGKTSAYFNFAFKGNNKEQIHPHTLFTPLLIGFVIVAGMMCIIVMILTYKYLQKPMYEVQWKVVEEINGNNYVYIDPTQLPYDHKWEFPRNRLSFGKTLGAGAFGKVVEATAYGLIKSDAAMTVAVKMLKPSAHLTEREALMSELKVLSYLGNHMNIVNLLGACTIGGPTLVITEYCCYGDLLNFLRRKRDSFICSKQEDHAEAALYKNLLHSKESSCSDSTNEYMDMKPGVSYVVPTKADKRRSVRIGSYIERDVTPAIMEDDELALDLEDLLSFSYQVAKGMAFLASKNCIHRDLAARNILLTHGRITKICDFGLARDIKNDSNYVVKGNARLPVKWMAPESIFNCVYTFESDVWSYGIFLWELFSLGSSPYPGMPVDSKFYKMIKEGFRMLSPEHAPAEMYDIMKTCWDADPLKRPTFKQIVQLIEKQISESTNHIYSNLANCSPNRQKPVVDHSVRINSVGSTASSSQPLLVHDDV
Experiment [14] concerns the target T3, Tyrosine-protein kinase Mer (Homo sapiens, UniProt Q12866).
T3 sequence (Q12866 whole entry): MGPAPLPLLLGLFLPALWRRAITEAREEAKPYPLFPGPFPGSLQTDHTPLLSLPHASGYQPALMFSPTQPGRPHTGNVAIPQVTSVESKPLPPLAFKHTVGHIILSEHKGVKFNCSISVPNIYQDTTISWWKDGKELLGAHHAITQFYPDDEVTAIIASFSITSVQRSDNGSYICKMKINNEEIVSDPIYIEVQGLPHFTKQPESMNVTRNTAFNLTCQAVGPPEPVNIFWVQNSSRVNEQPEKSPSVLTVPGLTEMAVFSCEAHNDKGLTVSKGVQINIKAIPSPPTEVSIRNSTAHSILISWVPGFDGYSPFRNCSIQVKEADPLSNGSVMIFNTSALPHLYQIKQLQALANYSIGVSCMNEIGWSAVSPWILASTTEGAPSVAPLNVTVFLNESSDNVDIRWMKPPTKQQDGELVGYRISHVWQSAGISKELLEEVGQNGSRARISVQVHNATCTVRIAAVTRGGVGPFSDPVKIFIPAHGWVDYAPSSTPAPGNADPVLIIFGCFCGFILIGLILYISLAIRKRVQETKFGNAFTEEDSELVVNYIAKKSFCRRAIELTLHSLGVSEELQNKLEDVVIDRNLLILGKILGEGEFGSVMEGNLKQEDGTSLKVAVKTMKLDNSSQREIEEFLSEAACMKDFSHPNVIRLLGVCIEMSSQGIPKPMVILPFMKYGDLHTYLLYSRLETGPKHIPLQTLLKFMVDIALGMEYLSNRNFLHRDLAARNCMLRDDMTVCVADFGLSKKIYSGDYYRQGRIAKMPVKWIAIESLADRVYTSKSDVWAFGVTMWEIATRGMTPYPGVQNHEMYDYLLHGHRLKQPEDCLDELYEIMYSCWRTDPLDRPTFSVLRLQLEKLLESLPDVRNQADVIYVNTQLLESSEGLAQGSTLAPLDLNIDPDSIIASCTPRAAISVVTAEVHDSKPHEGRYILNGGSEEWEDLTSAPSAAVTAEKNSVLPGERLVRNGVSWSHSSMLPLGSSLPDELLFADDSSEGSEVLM

In the next experiment the target is Actin-related protein 3 (Homo sapiens, UniProt P61158).

Among the data in ChEMBL document CHEMBL3991601, “The target landscape of clinical kinase drugs” (Science, 2017) are Kd values, retold here.

The source made the active and inactive calls. Some results are limits rather than exact numbers.
Further: in the data inactive means no Kd found up to 30 µM.

Chain of 5'-AMP-activated protein kinase subunit gamma-1 (P54619 whole entry): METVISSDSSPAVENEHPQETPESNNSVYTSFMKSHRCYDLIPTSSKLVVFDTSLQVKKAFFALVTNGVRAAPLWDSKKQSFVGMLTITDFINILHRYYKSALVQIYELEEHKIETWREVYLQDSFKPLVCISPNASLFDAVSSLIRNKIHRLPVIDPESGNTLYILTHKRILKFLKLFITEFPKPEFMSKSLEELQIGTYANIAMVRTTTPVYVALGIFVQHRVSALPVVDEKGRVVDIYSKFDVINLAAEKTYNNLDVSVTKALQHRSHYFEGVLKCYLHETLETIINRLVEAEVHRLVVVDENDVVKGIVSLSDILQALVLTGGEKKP
Chain of 5'-AMP-activated protein kinase subunit gamma-2 (Q9UGJ0 whole entry): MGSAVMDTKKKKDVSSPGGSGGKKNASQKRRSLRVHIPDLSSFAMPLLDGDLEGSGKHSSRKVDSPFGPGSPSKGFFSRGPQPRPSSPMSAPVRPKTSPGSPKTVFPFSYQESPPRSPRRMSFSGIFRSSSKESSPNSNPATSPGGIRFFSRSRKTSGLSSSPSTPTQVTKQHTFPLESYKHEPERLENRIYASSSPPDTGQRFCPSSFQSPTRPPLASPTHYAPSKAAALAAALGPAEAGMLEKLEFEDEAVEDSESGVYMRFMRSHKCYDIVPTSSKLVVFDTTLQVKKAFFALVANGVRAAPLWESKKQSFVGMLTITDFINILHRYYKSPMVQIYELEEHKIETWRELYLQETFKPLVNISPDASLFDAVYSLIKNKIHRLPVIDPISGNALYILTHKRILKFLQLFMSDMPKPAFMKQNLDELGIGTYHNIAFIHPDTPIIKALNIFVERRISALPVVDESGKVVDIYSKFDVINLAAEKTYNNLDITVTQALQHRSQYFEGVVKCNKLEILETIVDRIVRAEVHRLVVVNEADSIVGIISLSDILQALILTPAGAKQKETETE
Chain of Cyclin-dependent kinase 10 (Q15131 whole entry): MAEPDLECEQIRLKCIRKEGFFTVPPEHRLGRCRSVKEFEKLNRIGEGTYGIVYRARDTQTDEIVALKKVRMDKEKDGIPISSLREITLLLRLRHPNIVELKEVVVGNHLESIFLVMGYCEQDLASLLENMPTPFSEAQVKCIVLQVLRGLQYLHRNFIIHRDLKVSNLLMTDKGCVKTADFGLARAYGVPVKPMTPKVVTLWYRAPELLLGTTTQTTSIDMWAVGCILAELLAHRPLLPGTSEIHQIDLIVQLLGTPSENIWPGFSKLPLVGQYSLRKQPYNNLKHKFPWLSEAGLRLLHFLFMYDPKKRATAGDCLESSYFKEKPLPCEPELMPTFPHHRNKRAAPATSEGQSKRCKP
Chain of Tyrosine-protein kinase JAK2 (O60674 whole entry): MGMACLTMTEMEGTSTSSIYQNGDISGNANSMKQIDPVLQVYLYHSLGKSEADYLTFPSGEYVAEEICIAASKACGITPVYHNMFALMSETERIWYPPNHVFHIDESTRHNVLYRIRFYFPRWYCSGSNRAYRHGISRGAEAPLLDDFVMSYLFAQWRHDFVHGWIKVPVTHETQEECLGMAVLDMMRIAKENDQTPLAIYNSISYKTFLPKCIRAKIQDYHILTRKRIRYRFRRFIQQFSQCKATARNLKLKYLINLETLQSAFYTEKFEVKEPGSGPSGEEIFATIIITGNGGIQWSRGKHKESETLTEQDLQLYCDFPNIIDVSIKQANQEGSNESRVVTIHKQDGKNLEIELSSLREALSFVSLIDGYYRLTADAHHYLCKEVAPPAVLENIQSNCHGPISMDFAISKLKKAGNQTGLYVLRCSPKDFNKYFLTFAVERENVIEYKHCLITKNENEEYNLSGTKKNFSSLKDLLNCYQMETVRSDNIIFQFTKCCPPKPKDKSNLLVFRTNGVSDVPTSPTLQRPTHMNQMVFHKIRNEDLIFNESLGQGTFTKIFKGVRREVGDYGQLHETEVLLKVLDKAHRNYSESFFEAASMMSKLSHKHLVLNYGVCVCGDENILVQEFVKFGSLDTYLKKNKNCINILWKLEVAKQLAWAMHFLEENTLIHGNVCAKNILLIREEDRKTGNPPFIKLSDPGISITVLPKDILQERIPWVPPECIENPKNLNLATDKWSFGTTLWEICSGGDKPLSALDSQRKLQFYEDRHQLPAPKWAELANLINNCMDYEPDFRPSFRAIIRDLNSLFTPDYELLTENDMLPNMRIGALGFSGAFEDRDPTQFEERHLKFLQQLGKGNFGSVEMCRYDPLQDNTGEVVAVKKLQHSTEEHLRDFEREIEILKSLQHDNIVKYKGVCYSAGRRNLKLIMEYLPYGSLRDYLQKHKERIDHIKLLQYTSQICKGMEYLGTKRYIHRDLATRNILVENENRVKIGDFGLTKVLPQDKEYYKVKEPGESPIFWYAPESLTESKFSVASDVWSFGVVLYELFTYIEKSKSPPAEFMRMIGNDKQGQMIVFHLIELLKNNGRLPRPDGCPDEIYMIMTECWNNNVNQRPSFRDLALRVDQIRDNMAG
Chain of Eukaryotic peptide chain release factor GTP-binding subunit ERF3B (Q8IYD1 whole entry): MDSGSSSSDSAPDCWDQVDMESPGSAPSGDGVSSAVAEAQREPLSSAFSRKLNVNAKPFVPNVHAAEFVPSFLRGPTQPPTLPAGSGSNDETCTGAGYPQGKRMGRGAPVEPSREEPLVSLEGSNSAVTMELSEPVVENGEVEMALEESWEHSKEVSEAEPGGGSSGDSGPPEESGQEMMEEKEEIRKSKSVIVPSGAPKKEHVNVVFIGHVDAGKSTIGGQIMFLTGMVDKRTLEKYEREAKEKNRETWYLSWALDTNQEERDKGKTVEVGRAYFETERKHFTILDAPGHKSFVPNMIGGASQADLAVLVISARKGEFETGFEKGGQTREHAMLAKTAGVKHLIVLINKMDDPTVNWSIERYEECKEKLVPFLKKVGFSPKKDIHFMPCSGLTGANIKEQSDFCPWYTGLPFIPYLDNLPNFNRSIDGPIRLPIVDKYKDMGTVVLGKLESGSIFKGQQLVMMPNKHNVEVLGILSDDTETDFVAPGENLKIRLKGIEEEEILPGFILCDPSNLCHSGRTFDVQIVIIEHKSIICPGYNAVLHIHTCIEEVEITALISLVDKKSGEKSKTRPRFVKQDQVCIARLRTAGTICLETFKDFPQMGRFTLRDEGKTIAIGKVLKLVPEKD

Take `CC[C@@H]1C(=O)N(C)c2cnc(Nc3ccc(C(=O)N[C@H]4CC[C@H](N5CCN(CC6CC6)CC5)CC4)cc3OC)nc2N1C(C)C` [VOLASERTIB]: the Kd in experiment [1], in [2], in [3], in [4], in experiment [5] and in experiment [6] was > 30 µM (inactive) each time.

Take `CO[C@H]1C[C@@H]2CC[C@@H](C)[C@@](O)(O2)C(=O)C(=O)N2CCCC[C@H]2C(=O)O[C@H]([C@H](C)C[C@@H]2CC[C@@H](OCCO)[C@H](OC)C2)CC(=O)[C@H](C)/C=C(\C)[C@@H](O)[C@@H](OC)C(=O)[C@H](C)C[C@H](C)/C=C/C=C/C=C/1C` [EVEROLIMUS]: the Kd in [7] and in [8] was > 30 µM (inactive) each time.

For `CC(=O)Nc1cccc(-n2c(=O)n(C3CC3)c(=O)c3c(Nc4ccc(I)cc4F)n(C)c(=O)c(C)c32)c1` [TRAMETINIB], the Kd in [7], in experiment [9], in experiment [1], in experiment [2] and in experiment [10] was > 30 µM (inactive) throughout.

For `O=C(O)[C@]1(Cc2cccc(Nc3nccs3)n2)CC[C@@H](Oc2cccc(Cl)c2F)CC1` [MK-5108], the Kd is > 30 µM (inactive) in [7], > 30 µM (inactive) in experiment [9], 0.025 µM (active) in experiment [1] and > 30 µM (inactive) in experiment [11].

Take `O=C1NC(=O)/C(=C/c2ccc3nccc(-c4ccncc4)c3c2)S1` [GSK-1059615]: the Kd in experiment [12], in experiment [1] and in experiment [13] was > 30 µM (inactive) in each case.

For `CCc1cnn2c(NCc3ccc[n+]([O-])c3)cc(N3CCCC[C@H]3CCO)nc12` [DINACICLIB], the Kd in experiment [14] is > 30 µM (inactive); in [3], > 30 µM (inactive); in experiment [4] it was > 30 µM (inactive); in experiment [5], > 30 µM (inactive); in experiment [6], 0.56 µM (active).

`CN1CCC(COc2cnc(-c3cccc(Cn4nc(-c5cccc(C#N)c5)ccc4=O)c3)nc2)CC1` [TEPOTINIB]: the Kd on Actin-related protein 3 was > 30 µM (inactive).

As to `CNC(=O)c1cc(Oc2ccc(NC(=O)Nc3ccc(Cl)c(C(F)(F)F)c3)c(F)c2)ccn1` [REGORAFENIB], the Kd in experiment [2], in experiment [3], in experiment [4], in experiment [5] and in experiment [6] was > 30 µM (inactive) each time.

`CCN1CCN(Cc2ccc(-c3cc4c(N[C@H](C)c5ccccc5)ncnc4[nH]3)cc2)CC1` [AEE-788]: the Kd in experiment [12], in experiment [14] and in experiment [13] was > 30 µM (inactive) each time.

As to `CC[C@H](Nc1ncnc2[nH]cnc12)c1nc2cccc(F)c2c(=O)n1-c1ccccc1` [IDELALISIB], the Kd in [11], in experiment [3], in [4], in experiment [5] and in [6] was > 30 µM (inactive) throughout.
